Test results from patent US20230145555A1 (priority 2020, published 2023).
Where two headings read alike, the source gives them in different places.

Tests used:
[1] = test system: K18-hACE2 transgenic mouse; format: in vivo; conditions: after 7 days
[2] = test system: NLRP3 inflammasome; conditions: macrophages; cited from earlier work
[3] = test system: SARS-CoV-2; experiment: Proof of concept study: time to negative SARS-CoV-2 test in asymptomatic positive patients; format: in vivo, human; conditions: resveratrol alone by nasal and throat spray and/or inhalation, 6.0 mg per day for 2 weeks; 40 patients
From the text: About 100 adult asymptomatic patients, which are positive for SARS-CoV-2, are included in the study after a confirmatory test. […] Subsequently, the patients have a daily SARS-CoV-2 tests until day 7 and then at End of Treatment day 14.

[4] = cited from earlier work
[5] = RSV 30 mg in food (aqueous phospholipid formulation)
[6] = RSV 45 mg in food (aqueous phospholipid formulation)
[7] = RSV 60 mg in food (aqueous phospholipid formulation)

Compound: Oc1ccc(/C=C/c2cc(O)cc(O)c2)cc1 [RSV, resveratrol]
- Survival Rate [%] [1, 5]: 37.5%
- Survival Rate n/8 [1, 5]: 3 n/8
- Survival Rate [%] [1, 6]: 50%
- Survival Rate n/8 [1, 6]: 4 n/8
- Survival Rate [%] [1, 7]: 62.5%
- Survival Rate n/8 [1, 7]: 5 n/8
- NLRP3 inflammasome-derived IL-1β secretion and pyroptosis [2]: inhibits
- time to negative SARS-CoV-2 test compared to patients without treatment [3]: significantly earlier
- solubility in water [4]: almost insoluble
